Active and inactive are the calls of the source. The rule behind the calls is not given here.
Each compound was assayed against Botulinum neurotoxin type A (Clostridium botulinum, UniProt P0DPI0) (assay: Inhibition of Clostridium BoNT/A protease light chain). Conditions: not given.
Sequence of Botulinum neurotoxin type A (P0DPI0 2-448 limits assumed): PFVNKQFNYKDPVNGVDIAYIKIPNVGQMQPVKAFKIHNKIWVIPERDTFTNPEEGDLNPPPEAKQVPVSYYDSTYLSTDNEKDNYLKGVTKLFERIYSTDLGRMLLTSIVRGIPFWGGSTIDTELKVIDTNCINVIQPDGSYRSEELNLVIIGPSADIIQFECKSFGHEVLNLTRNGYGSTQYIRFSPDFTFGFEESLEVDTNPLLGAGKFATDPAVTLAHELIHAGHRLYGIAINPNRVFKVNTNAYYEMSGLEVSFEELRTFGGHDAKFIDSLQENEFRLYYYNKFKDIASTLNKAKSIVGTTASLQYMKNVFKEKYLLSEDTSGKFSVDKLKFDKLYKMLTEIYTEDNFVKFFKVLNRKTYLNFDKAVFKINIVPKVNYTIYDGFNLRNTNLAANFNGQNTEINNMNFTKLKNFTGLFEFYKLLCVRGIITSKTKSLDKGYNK
For C=C(C)[C@@H]1CC[C@]2(C(=O)O)CC[C@]3(C)[C@H](CC[C@@H]4[C@@]5(C)CC[C@H](O)C(C)(C)[C@@H]5CC[C@]43C)[C@@H]12 [BETULINIC ACID], the IC50 was 20 µM and the Ki was 14.3 µM.
With C=C(C)[C@@H]1CC[C@]2(COC(=O)COc3cc(C(C)C)ccc3C)CC[C@]3(C)[C@H](CC[C@@H]4[C@@]5(C)CC[C@H](O)C(C)(C)[C@@H]5CC[C@]43C)[C@@H]12 the IC50 was 10 µM and the Ki was 13.3 µM.
Compound C=C(C)[C@@H]1CC[C@]2(COC(=O)CCC(=O)O)CC[C@]3(C)[C@H](CC[C@@H]4[C@@]5(C)CC[C@H](O)C(C)(C)[C@@H]5CC[C@]43C)[C@@H]12 has an IC50 of 1.5 µM and a Ki of 0.8 µM.
For C=C(C)[C@@H]1CC[C@]2(C(=O)OC)CC[C@]3(C)[C@H](CC[C@@H]4[C@@]5(C)CC[C@H](O)C(C)(C)[C@@H]5CC[C@]43C)[C@@H]12 [METHYL BETULINATE], the IC50 was < 100 µM.
For C=C(C)[C@@H]1CC[C@]2(C(=O)O)CC[C@]3(C)[C@H](CC[C@@H]4[C@@]5(C)CCC(=O)C(C)(C)[C@@H]5CC[C@]43C)[C@@H]12 [BETUNOLIC ACID], the IC50 was < 100 µM.

These compounds were tested against Botulinum neurotoxin type A (Clostridium botulinum) (UniProt P0DPI0). Conditions: 0.67 to 18 uM.
Sequence of Botulinum neurotoxin type A (Clostridium botulinum) (P0DPI0 2-448 limits assumed): as above
C=C(C)[C@@H]1CC[C@]2(COC(=O)CCC(=O)O)CC[C@]3(C)[C@H](CC[C@@H]4[C@@]5(C)CC[C@H](O)C(C)(C)[C@@H]5CC[C@]43C)[C@@H]12 was tested, and the inhibition was “Active”.
